From US20080247962A1, “Pharmaceutical Compositions Comprising Higher Primary Aliphatic Alcohols and Hmg Coa Reductase Inhibitor and Process of Preparation Thereof” (PANACEA BIOTEC LTD., priority 2004, published 2008)

Tested on: Casein-Starch-Induced Hypercholesterolemia in Rabbits
Assay: Casein-starch-induced hypercholesterolemia in rabbits (serum lipid profile)
Type: in vivo
Set-up: key to LDL-C level: serum LDL-C in mg/dL, mean±S.E.M
Conditions: for serum total cholesterol level / LDL-C level: mean±S.E.M.; for LDL-C level: in mg/dL (unit assumed)
Protocol: Casein-Starch-Induced Hypercholesterolemia in Rabbits
The observed unexpected synergistic lipid lowering effect of combination of Extract-A and atorvastatin is evidenced by the test conducted in rabbits. Rabbits of either sex were procured from Central Animal House facility; Panacea Biotec Ltd., India. Animals weighing 1.5-2.0 Kg at the time of testing were used. All animals were dosed sequentially by the oral route with Extract-A and/or atorvastatin suspended in 0.5% of carboxymethyl cellulose (CMC). A dosing volume of 2 ml/kg was used for each sequential suspension.
The fasting serum lipid profile (TC, TGs, LDL-C, HDL-C) was estimated before initiation of the experiment. […] Hypercholesterolemia was induced by feeding rabbits with wheat casein-starch diet (g/kg) containing wheat flour 333, cellulose 300, casein 270, water 20, maize oil 10, and mineral mixture (Kroon et al., 1982) for 60 days. Feed consumption was restricted to 100 g/day per animal. The cholesterol level was estimated every 15 days. After 60 days animals with total cholesterol level >150 mg/dl were randomized to treatment (n=6/group). Thereafter, various doses of Extract-A and/or atorvastatin were administered for another 60 days during which animals were fed with casein-starch diet. Blood samples were collected from fasted rabbits and analyzed for any alteration in serum lipid profile after 60 days of test compound(s) administration.
All the data are expressed as mean±S.E.M. (Standard Error of Mean). Student t-test was-used to compare the lipid parameters between animals fed with standard and hypercholesterolemic diet. The difference between various drug treated groups was analyzed by ANOVA followed by Dunnett's test. A value of P<0.05 was considered as statistically significant.

[1] = atorvastatin 2.5 mg/kg p.o., day 0, pre-dose
[2] = atorvastatin 2.5 mg/kg p.o., day 15, pre-dose
[3] = atorvastatin 2.5 mg/kg p.o., day 30, pre-dose
[4] = atorvastatin 2.5 mg/kg p.o., day 60, start of dosing
[5] = atorvastatin 2.5 mg/kg p.o., day 75 (dosing from day 60)
[6] = atorvastatin 2.5 mg/kg p.o., day 90 (dosing from day 60)
[7] = atorvastatin 2.5 mg/kg p.o., day 105 (dosing from day 60)
[8] = atorvastatin 2.5 mg/kg p.o., day 120 (dosing from day 60)
[9] = atorvastatin 5 mg/kg p.o., day 0, pre-dose
[10] = atorvastatin 5 mg/kg p.o., day 15, pre-dose
[11] = atorvastatin 5 mg/kg p.o., day 30, pre-dose
[12] = atorvastatin 5 mg/kg p.o., day 60, start of dosing
[13] = atorvastatin 5 mg/kg p.o., day 75 (dosing from day 60)
[14] = atorvastatin 5 mg/kg p.o., day 90 (dosing from day 60)
[15] = atorvastatin 5 mg/kg p.o., day 105 (dosing from day 60)
[16] = atorvastatin 5 mg/kg p.o., day 120 (dosing from day 60)
[17] = single agents: Extract-A 100 and 200 mg/kg p.o., atorvastatin 2.5 and 5 mg/kg p.o.

Compound: CC(C)c1c(C(=O)Nc2ccccc2)c(-c2ccccc2)c(-c2ccc(F)cc2)n1CC[C@@H](O)C[C@@H](O)CC(=O)O [At, atorvastatin]
- serum total cholesterol level [1]: 56.83 ± 4.84 mg/dL
- LDL-C level [1]: 21.4 ± 8.04
- serum total cholesterol level [2]: 96.00 ± 2.08 mg/dL
- LDL-C level [2]: 61.03 ± 1.87
- serum total cholesterol level [3]: 144.83 ± 6.6 mg/dL
- LDL-C level [3]: 106.6 ± 5.85
- serum total cholesterol level [4]: 204.66 ± 6.58 mg/dL
- LDL-C level [4]: 166.07 ± 4.97
- serum total cholesterol level [5]: 202.5 ± 15.15 mg/dL
- LDL-C level [5]: 165.53 ± 14.81
- serum total cholesterol level [6]: 205.83 ± 13.31 mg/dL
- LDL-C level [6]: 166.47 ± 13.66
- serum total cholesterol level [7]: 201.33 ± 11.49 mg/dL
- LDL-C level [7]: 159.3 ± 12.53
- serum total cholesterol level [8]: 201.16 ± 10.4 mg/dL
- LDL-C level [8]: 158.00 ± 12.22
- serum total cholesterol level [9]: 68.50 ± 5.99 mg/dL
- LDL-C level [9]: 30.33 ± 6.44
- serum total cholesterol level [10]: 101.16 ± 1.88 mg/dL
- LDL-C level [10]: 61.83 ± 1.77
- serum total cholesterol level [11]: 142.16 ± 10.37 mg/dL
- LDL-C level [11]: 104.17 ± 11.76
- serum total cholesterol level [12]: 226.67 ± 9.74 mg/dL
- LDL-C level [12]: 188.67 ± 10.00
- serum total cholesterol level [13]: 213.16 ± 5.69 mg/dL
- LDL-C level [13]: 175.07 ± 5.06
- serum total cholesterol level [14]: 201.83 ± 5.81 mg/dL
- LDL-C level [14]: 161.3 ± 6.04
- serum total cholesterol level [15]: 198.17 ± 6.65 mg/dL
- LDL-C level [15]: 155.17 ± 6.87
- serum total cholesterol level [16]: 195.50 ± 5.31 mg/dL
- LDL-C level [16]: 149.1 ± 4.72
- LDL-C in comparison to hypercholesterolemic control rabbits [17]: reversed
- TC in comparison to hypercholesterolemic control rabbits [17]: reversed
